Measurements from paper PMC6160541 (Frontiers in Chemistry, 2018).

Tests used:
HepG-2 = test: MTT cytotoxicity assay, HepG-2; assay type: cell-based, human; settings: 48 h
Experimental: (§1) We evaluated the cytotoxicity of 1c-6c, 1d-7d and of the positive control 1a-5a against a panel of human cancer cells using MTT (3-(4,5-dimethylthiazol-2-yl)-2,5-diphenyltetrazolium bromide) assay. The IC50 values were calculated based on three parallel experiments.
(§2) Cisplatin and oxaliplatin were purchased from Yurui Chemical Co. Ltd. (Shanghai, China). All of the other chemicals were obtained from commercial suppliers, such as Alfa […]
(§3) IonSpec QFT mass spectrometer with ESI ionization. 3-(4,5-dimethylthiazol-2-yl) […]
(§4) Phosphate-buffered saline (PBS) contains 137 mM
(§5) NaCl, 2.7 mM KCl, 10 mM Na2HPO4 and 2 mM KH2PO4. Fetal bovine serum (FBS), 0.25% trypsin/EDTA solution, and penicillin-streptomycin solution were purchased from […]
(§6) Invitrogen (Grand Island, NY, USA). […]
(§7) HeLa (cervical carcinoma cell line), MCF-7 (breast gland adenocarcinoma), LNCaP and PC3 (prostatic cancer), HepG-2 (hepatocellular carcinoma), A549 and A549R (lung carcinoma) were used for the MTT […]
(§8) In Vitro Cellular Cytotoxicity Assays
(§9) Cells seeded in 96-well plates were incubated in a 5% CO2 atmosphere in 100 µL of complete medium at 37 ℃ for 24 h. Then, 100 µL of freshly prepared culture medium containing drugs at different concentrations was added and incubated for another 48 h.
(§10) MTT (5 mg/mL, 20 µL) was added and incubated for 3 h. Finally, the medium was removed, and DMSO (150 µL) was added. The absorbance was measured at 570 nm using a Bio-Rad 680 microplate reader. The IC50 values were calculated using GraphPad […]
(§11) Prism software. […]

MCF-7 = test: MTT cytotoxicity assay, MCF-7; assay type: cell-based, human; settings: 48 h
Experimental: as §1, §2, §3, §4, §5, §6, §7, §8, §9, §10, §11

PC3 = test: MTT cytotoxicity assay, PC3; assay type: cell-based, human; settings: 48 h
Experimental: as §1, §2, §3, §4, §5, §6, §7, §8, §9, §10, §11

A549 = test: MTT cytotoxicity assay, A549; assay type: cell-based, human; settings: 48 h
Experimental: as §1, §2, §3, §4, §5, §6, §7, §8, §9, §10, §11

HeLa = test: MTT cytotoxicity assay, HeLa; assay type: cell-based, human; settings: 48 h
Experimental: as §1, §2, §3, §4, §5, §6, §7, §8, §9, §10, §11

LNCaP = test: MTT cytotoxicity assay, LNCaP; assay type: cell-based, human; settings: 48 h
Experimental: as §1, §2, §3, §4, §5, §6, §7, §8, §9, §10, §11

A549R = test: MTT cytotoxicity assay, A549R (cisplatin-resistant); assay type: cell-based, human; settings: for IC50: MTT, 48 h
Experimental: as §1, §2, §3, §4, §5, §6, §7, §8, §9, §10, §11

human cancer cells = test: MTT cytotoxicity, summary over panel of human cancer cells; assay type: cell-based; settings: range over A549R, LnCaP, PC3
Experimental: as §1
Scheme 9. Synthetic route of 38b. Conditions and reagents: (a) Ac2O and NaOAc; (b) TMSN3, BF3OEt2, and DCM; (c) MeONa and MeOH rt overnight; (d) BnBr, NaH, and DMF overnight; (e) […]
Preparation of 46b and 47b
Compounds 46b (38%) and 47b (45%) were prepared according to the procedure described for compounds 20b and 21b, respectively.
Compound 48b (45%) was prepared according to the procedure described for compound […]
In Vitro Cellular Cytotoxicity Assays […]
MTT (5 mg/mL, 20 µL) was added and incubated for 3 h. […] The absorbance was measured at 570 nm using a Bio-Rad 680 microplate reader. The IC50 values were calculated using GraphPad Prism software. […]
For cytotoxicity assays using the GLUT1 inhibitor 4,6-O-ethylidene-α-D-glucose (EDG), phloretin and the OCT2 inhibitor Ctd., a similar procedure as described above was followed except that MCF-7 cells (3500 cells/well) were seeded on a 96 well plate in 100 µL of RPMI and incubated for 24 h at 37 °C. […] The cytotoxicity profiles of the compounds were evaluated using the MTT assay. […]

MCF-7 cells = test: MTT cytotoxicity with GLUT1 inhibitors (EDG, phloretin) and OCT2 inhibitor (Ctd.) in MCF-7 cells; assay type: cell-based, human; settings: MCF-7
Experimental: For cytotoxicity assays, the GLUT1 inhibitors EDG (1) and phloretin (2), the OCT2 inhibitor Ctd. (cimetidine) (3), and the mixture of EDG and Ctd.(4) were selected to undergo a similar procedure as antitumor activity in vitro. MCF-7 cells were seeded on a 96 well plate in 100 μL of RPMI and were incubated for 24 h at 37°C, and EDG-containing RPMI medium, phloretin-containing RPMI medium and Ctd.-containing RPMI medium were used to render the serial dilution of the concentrated solutions of the platinum compounds, and 100 μL/well was added (resulting in final inhibitor concentrations of 75 mM, 100 μM and 3 mM). The cytotoxicity profiles of the compounds were evaluated using MTT assay. […]
as §8, §9
as §10, with “GraphPad Prism software. Technical repetitions and independent experiments were based on three” for “GraphPad”
For cytotoxicity assays using the GLUT1 inhibitor 4,6-O-ethylidene-α-D-glucose (EDG), phloretin and the OCT2 inhibitor Ctd., a similar procedure as described above was followed except that MCF-7 cells (3500 cells/well) were seeded on a 96 well plate in 100 µL of RPMI and incubated for 24 h at 37 °C. EDG, phloretin and Ctd. containing RPMI medium were used for serial dilution of the concentrated solutions of the platinum compounds, and 100 µL/well were added (resulting in final inhibitor concentrations of 75 mM, 100 µM and 3 mM, respectively). The cytotoxicity profiles of the compounds were evaluated using the MTT assay. […]

| SMILES | IC50 (HepG-2) | IC50 (MCF-7) | IC50 (PC3) | IC50 (A549) | IC50 (HeLa) | IC50 (LNCaP) | IC50 (A549R) | RF: Resistance factor = IC50(A549R)/IC50(A549) (A549R) | IC50 (human cancer cells) | effect of EDG and phloretin on IC50 values (MCF-7 cells) |
| --- | --- | --- | --- | --- | --- | --- | --- | --- | --- | --- |
| CC(=O)OC[C@H]1O[C@@H](NC(=O)CCC(=O)[O][Pt-2]23([OH])([NH2+][C@@H]4CCCC[C@H]4[NH2+]2)[O]C(=O)C(=O)[O]3)[C@H](OC(C)=O)[C@@H](OC(C)=O)[C@@H]1O[C@H]1O[C@H](COC(C)=O)[C@@H](OC(C)=O)[C@H](OC(C)=O)[C@H]1OC(C)=O [4c] | 10.7 ± 1.49 µM | 7.21 ± 0.78 µM | 22.9 ± 0.78 µM | 14.3 ± 1.48 µM | > 100 µM | > 100 µM | 25.2 ± 1.79 µM |  |  |  |
| O=C(CCC(=O)[O][Pt-2]12([OH])([NH2+][C@@H]3CCCC[C@H]3[NH2+]1)[O]C(=O)C(=O)[O]2)NCCCO[C@@H]1O[C@H](CO)[C@H](O)[C@H](O)[C@H]1O [5d] | 1.77 ± 1.39 µM | 0.35 µM | 6.27 ± 1.45 µM | 2.29 ± 1.78 µM | 0.58 ± 0.78 µM | 12 ± 0.79 µM | 5.67 ± 1.69 µM |  |  |  |
| N.N.O=C(CCC(=O)[O][Pt]([OH])([Cl])[Cl])NCCO[C@H]1O[C@H](CO)[C@@H](O)[C@H](O)[C@@H]1O [3d] | 13.2 ± 1.38 µM | 45.1 ± 0.77 µM | > 100 µM | 1.9 ± 2.78 µM | 3.01 ± 0.67 µM | > 100 µM | > 100 µM |  |  |  |
| CC(=O)OC[C@H]1O[C@@H](NC(=O)CCC(=O)[O][Pt-2]23([OH])([NH2+][C@@H]4CCCC[C@H]4[NH2+]2)[O]C(=O)C(=O)[O]3)[C@H](OC(C)=O)[C@@H](OC(C)=O)[C@H]1OC(C)=O [5c] | > 100 µM | 17.89 ± 0.12 µM | 7.45 ± 0.56 µM | 17.5 ± 0.89 µM | 32.2 ± 0.34 µM | 22.1 ± 1.45 µM | 74.1 ± 1.67 µM | 4.24 |  |  |
| N.N.[Cl][Pt][Cl] [1a, cisplatin, reference compound] | 3.94 ± 0.39 µM | 2.28 ± 0.56 µM | 22.9 ± 1.45 µM | 10.8 ± 1.98 µM | 0.8 ± 0.93 µM | 23.8 ± 0.89 µM | 35.8 ± 1.69 µM |  | 16.8 to 39.7 µM | not greatly different |
| N.N.[Cl-].[Cl-].[OH-].[OH-].[Pt+4] [2a, reference compound] | 50 ± 1.79 µM | 27 ± 0.34 µM | 61.4 ± 0.67 µM | > 100 µM | 11.4 ± 1.56 µM | 50.8 ± 0.79 µM | 13.4 ± 2.57 µM |  |  |  |
| O=C1[O][Pt]2([NH][C@@H]3CCCC[C@H]3[NH]2)[O]C1=O [3a, oxaliplatin, reference compound] | 6.64 ± 1.79 µM | 5.22 ± 2.78 µM | 39.7 ± 0.76 µM | 10.1 ± 1.2 µM | 3.96 ± 0.75 µM | 16.8 ± 0.34 µM | 39.7 ± 0.69 µM | 3.94 | 16.8 to 39.7 µM | not greatly different |
